The text below walks through data of article PMC6893898, “Receptor Interaction Profiles of 4-Alkoxy-Substituted 2,5-Dimethoxyphenethylamines and Related Amphetamines” (Frontiers in Pharmacology, 2019).

For one assay, the target named is T1, 5-HT2C receptor (Homo sapiens, UniProt P28335).
T1 construct: expressed in transfected cells; host or cells: HEK 293 (membrane preparation)
T1 sequence (P28335 33-458): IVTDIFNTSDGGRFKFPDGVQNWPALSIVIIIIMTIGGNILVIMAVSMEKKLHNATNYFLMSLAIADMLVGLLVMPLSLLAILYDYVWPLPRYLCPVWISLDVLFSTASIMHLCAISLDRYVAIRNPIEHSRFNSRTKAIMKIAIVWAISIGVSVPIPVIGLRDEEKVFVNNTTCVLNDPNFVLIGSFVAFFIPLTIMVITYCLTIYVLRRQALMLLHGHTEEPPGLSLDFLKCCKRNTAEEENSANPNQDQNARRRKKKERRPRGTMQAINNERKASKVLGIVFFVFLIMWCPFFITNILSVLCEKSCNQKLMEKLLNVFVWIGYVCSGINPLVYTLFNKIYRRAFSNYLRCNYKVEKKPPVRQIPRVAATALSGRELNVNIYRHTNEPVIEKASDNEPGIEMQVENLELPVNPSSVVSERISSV
Kind of assay: biochemical. The format is binding. The settings on record: for Ki: [3H]mesulgerine, read-out: h5-HT2C Receptor binding Ki ± SD.

The target in another assay is T2, human TAAR1 (Homo sapiens, UniProt Q96RJ0).
T2 construct: expressed in transfected cells; host or cells: HEK 293 (recombinant, Geneticin/hygromycin B selection)
T2 sequence (Q96RJ0 1-339): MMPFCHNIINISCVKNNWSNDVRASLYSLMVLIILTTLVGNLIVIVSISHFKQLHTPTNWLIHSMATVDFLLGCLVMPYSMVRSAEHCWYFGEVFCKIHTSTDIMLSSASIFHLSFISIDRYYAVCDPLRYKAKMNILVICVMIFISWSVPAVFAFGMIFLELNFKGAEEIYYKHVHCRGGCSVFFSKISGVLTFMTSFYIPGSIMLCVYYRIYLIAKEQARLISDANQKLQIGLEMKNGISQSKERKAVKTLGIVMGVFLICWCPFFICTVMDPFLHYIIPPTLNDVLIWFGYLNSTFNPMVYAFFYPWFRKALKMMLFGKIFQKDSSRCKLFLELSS
Kind of assay: Activity at the human TAAR1 (cAMP, HEK 293 cells). Format: cell-based. The settings on record: human TAAR1 EC50 ± SD. Here is the method: Activity at the human TAAR1 was examined as previously described in full detail ([Luethi et al., 2018]). In summary, human TAAR1 expressing recombinant HEK 293 cells were grown in 250 ml falcon culture flasks containing 30 ml of high glucose DMEM (10% heat inactivated fetal calf serum, 500 µg/ml Geneticin [Gibco, Zug, Switzerland] and 500 µg/ml hygromycin B) at 37°C and 5% CO2/95% air. At 80-90% confluency, the cells were collected. The medium was aspirated, cells were washed with phosphate-buffered saline (PBS) and then trypsinized for 5 min at 37°C with 5 ml of trypsin/EDTA solution. Next, 45 ml of medium was added and the mixture was transferred into a falcon tube. After centrifugation (900 rpm, 3 min, RT), the supernatant was aspirated and the remaining cell pellet was resuspended in fresh medium to […]. Using a multipipette, 100 µl of cells were transferred (80,000 cells/well) into a 96-well plate (BIOCOAT 6640, Becton Dickinson, Allschwil, Switzerland) and incubated for 20 h at 37°C. For the cAMP assay, the medium was aspirated replaced with 50 µL PBS without Ca^2+ and Mg^2+ ions. The PBS was then extracted using snap inversion and the plate was softly tapped against tissue; 90 µL of Krebs-Ringer Bicarbonate buffer (Sigma-Aldrich) containing 1 mM IBMX was added and incubated for 60 min at 37°C and 5% CO2/95% air. A concentration range between 300 pM and 30 µM of test compounds was examined in duplicate. A standard curve with a range of cAMP concentrations (0.13 nM to 10 µM) was created per 96-well plate. Each experiment was accompanied with a reference plate that included three compounds; RO5256390, β-phenylethylamine, and p-tyramine. The cells were exposed to either 30 µl of compound solution, 30 µl of β-phenylethylamine (as maximal response), or a basal control in PBS (containing 1 mM IBMX) for 40 min at 37°C. Next, under forceful shaking using black lids, the cells were exposed to 50 µl of 3x detection mix solution (composed of Ru-cAMP Alexa700 anti-cAMP antibody and lysis buffer) for 120 min at room temperature in order to lyse the cells. Using the NanoScan reader (Innovative Optische Messtechnik, Berlin, Germany; 456 nm excitation wavelength; 630 and 700 nm emission wavelengths), the fluorescence was examined and the fluorescence resonance energy transfer (FRET) signal was determined using the following equation; FRET (700 nm) − P × FRET (630 nm), where P = Ru (700 nm)/Ru (630 nm). Receptor binding affinity at the human TAAR1 was not determined since unfortunately, there are no suitable radioligands available for this receptor.
Functional activity of the derivatives was only examined at the human TAAR1 and not at the mouse and rat TAAR1, because functional assays are not set up.

The target in a further assay is T3, α2A adrenergic receptor (Homo sapiens, UniProt P08913).
T3 construct: expressed in transfected cells; host or cells: Chinese hamster lung cell line (membrane preparation)
T3 sequence (P08913 1-465): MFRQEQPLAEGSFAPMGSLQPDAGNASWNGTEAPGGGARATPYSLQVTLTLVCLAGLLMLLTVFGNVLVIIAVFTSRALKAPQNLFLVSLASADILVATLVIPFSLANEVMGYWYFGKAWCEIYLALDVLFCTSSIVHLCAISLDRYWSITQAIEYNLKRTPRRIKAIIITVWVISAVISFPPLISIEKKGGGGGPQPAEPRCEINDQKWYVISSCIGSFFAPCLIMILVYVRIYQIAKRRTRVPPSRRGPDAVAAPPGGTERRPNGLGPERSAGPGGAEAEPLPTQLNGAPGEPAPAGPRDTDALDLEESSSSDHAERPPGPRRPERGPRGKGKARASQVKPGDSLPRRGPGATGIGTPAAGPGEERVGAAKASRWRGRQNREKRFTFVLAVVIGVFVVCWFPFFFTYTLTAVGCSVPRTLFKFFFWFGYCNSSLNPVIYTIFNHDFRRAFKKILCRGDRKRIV
Kind of assay: Radioligand binding, α2A adrenergic receptor ([3H]rauwolscine).

`COc1cc(OCCF)c(OC)cc1CC(C)N` (centres unmarked) [MFEM, 2,5-dimethoxy-4-(2-fluoroethoxy)amphetamine]: the inhibitory constant (Ki) is 11 ± 3 µM at 5-HT2C receptor and above 4.8 µM at α2A adrenergic receptor. This compound showed a 50% effective concentration (EC50) on human TAAR1 above 30 µM.
Regarding `C=CCOc1cc(OC)c(CCN)cc1OC` [2C-O-16, 4-allyloxy-2,5-dimethoxyphenethylamine], the figures for the Ki on 5-HT2C receptor and at α2A adrenergic receptor were 0.47 ± 0.04 µM and 0.62 ± 0.02 µM, respectively. The compound also yielded an EC50 at human TAAR1 above 30 µM.
With `COc1cc(OCC(F)F)c(OC)cc1CCN` [2C-O-21.5, 4-(2,2-difluoroethoxy)-2,5-dimethoxyphenethylamine], the inhibition constant (Ki) on 5-HT2C receptor was determined as 4.2 ± 1.5 µM; at α2A adrenergic receptor, 1.9 ± 0.1 µM. This compound showed a half-maximal effective concentration (EC50) on human TAAR1 above 30 µM.
As to `COc1cc(OC(C)C)c(OC)cc1CC(C)N` (centres unmarked) [MIPM, 2,5-dimethoxy-4-isopropoxyamphetamine], at 5-HT2C receptor, the “Reduction of 5-HT2C binding affinity compared to TMA-2 (19)” value was 2 fold and the Ki came to 9.03 ± 2.39 µM. The same compound gave an EC50 at human TAAR1 above 30 µM. In addition, at α2A adrenergic receptor, the inhibition constant Ki is above 4.8 µM.
Consider `C=C(C)COc1cc(OC)c(CC(C)N)cc1OC` (centres unmarked) [MMALM, 2,5-dimethoxy-4-methallyloxyamphetamine], for which, at 5-HT2C receptor, the “Enhancement of 5-HT2C binding affinity compared to TMA-2 (19)” value stood at 18 fold and the Ki is 0.29 ± 0.11 µM. Besides, the EC50 on human TAAR1 was above 30 µM. For the same compound, the affinity on α2A adrenergic receptor corresponds to a Ki of 2.4 ± 0.2 µM.
Consider `COc1cc(OCCF)c(OC)cc1CCN` [2C-O-21, 2,5-dimethoxy-4-(2-fluoroethoxy)phenethylamine], for which the Ki on 5-HT2C receptor came out at 3.6 ± 1.9 µM; at α2A adrenergic receptor it was 3.6 ± 0.5 µM. For the same compound, the half-maximal effective concentration (EC50) on human TAAR1 was above 30 µM.
`CCOc1cc(OC)c(CCN)cc1OC` [2C-O-2, 2,5-dimethoxy-4-ethoxyphenethylamine]: the inhibition constant Ki at 5-HT2C receptor came to 2.3 ± 1.2 µM; at α2A adrenergic receptor, 2.6 ± 0.1 µM. The compound further returned an EC50 at human TAAR1 of 9.6 ± 6.34 µM.
Turning to `COc1cc(OCc2ccccc2)c(OC)cc1CCN` [2C-O-27, 4-benzyloxy-2,5-dimethoxyphenethylamine], the values for the inhibition constant Ki on 5-HT2C receptor and on α2A adrenergic receptor were 0.11 ± 0.05 µM and 0.57 ± 0.03 µM, respectively. At human TAAR1, this compound registered a concentration for a half-maximal effect (EC50) above 30 µM.
For `C=C(C)COc1cc(OC)c(CCN)cc1OC` [2C-O-3, 2,5-dimethoxy-4-methallyloxyphenethylamine] the same measures were 0.15 ± 0.03 µM, 0.18 ± 0.01 µM and above 30 µM.
With `C=CCOc1cc(OC)c(CC(C)N)cc1OC` (centres unmarked) [MALM, 4-allyloxy-2,5-dimethoxyamphetamine], on 5-HT2C receptor, the “Enhancement of 5-HT2C binding affinity compared to TMA-2 (19)” value is given as 6 fold and the inhibitory constant (Ki) was found to be 0.9 ± 0.22 µM. The EC50 on human TAAR1 was above 30 µM. This compound came in with an inhibition constant Ki at α2A adrenergic receptor above 4.8 µM.
For the compound `COc1cc(OCC(F)F)c(OC)cc1CC(C)N` (centres unmarked) [MDFEM, 4-(2,2-difluoroethoxy)-2,5-dimethoxyamphetamine], the “Increase in 5-HT2C binding affinity compared to MFEM (15)” value at 5-HT2C receptor is 2 fold. In addition, the inhibition constant Ki is 6.7 ± 2.4 µM at 5-HT2C receptor and above 4.8 µM at α2A adrenergic receptor. On human TAAR1, this compound returned a concentration for a half-maximal effect (EC50) above 30 µM.
For `COc1cc(OCC(F)(F)F)c(OC)cc1CC(C)N` (centres unmarked) [MTFEM, 2,5-dimethoxy-4-(2,2,2-trifluoroethoxy)amphetamine] the same measures were around 5 fold, 2.4 ± 0.8 µM, above 4.8 µM and above 30 µM.
As to `COc1cc(OCC(F)(F)F)c(OC)cc1CCN` [2C-O-22, 2,5-dimethoxy-4-(2,2,2-trifluoroethoxy)phenethylamine], the results for the Ki at 5-HT2C receptor and on α2A adrenergic receptor were 1.9 ± 0.4 µM and 1.8 ± 0.1 µM, respectively. The same compound registered a 50% effective concentration (EC50) at human TAAR1 of 3.6 ± 2.4 µM.

For orientation: Ki means a measure of affinity in units of concentration, obtained from inhibition or displacement. Usually EC50 stands for the concentration needed to bring the measured effect to its halfway point. A lower EC50 goes with higher potency in that assay.
